From PMC2962730 (Journal of neurochemistry, 2010)
Residue numbers refer to the chain shown, from its start.

Assays:
[1] = biological target: T1, hVAChT K317A (Homo sapiens, UniProt Q16572, K317A); assay: [3H]vesamicol saturation binding; settings: pH 7.4
T1 sequence (Q16572 1-532 K317A): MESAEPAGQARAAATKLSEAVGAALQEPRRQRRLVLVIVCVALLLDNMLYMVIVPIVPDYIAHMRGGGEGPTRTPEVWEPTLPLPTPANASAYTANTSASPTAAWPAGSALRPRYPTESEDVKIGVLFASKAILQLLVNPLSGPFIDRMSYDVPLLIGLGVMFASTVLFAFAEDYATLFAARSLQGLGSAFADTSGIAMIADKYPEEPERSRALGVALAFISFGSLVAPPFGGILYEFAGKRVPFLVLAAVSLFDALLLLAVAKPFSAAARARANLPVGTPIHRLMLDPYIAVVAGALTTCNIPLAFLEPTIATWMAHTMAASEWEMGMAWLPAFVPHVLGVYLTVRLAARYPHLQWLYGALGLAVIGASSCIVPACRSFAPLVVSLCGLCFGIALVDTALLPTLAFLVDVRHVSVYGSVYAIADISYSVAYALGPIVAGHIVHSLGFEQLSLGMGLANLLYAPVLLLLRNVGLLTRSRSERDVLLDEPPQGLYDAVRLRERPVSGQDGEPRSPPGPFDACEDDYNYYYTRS

[2] = biological target: T2, hVAChT Y60A (Homo sapiens, UniProt Q16572, Y60A); assay: [3H]ACh transport; format: biochemical
T2 sequence (Q16572 1-532 Y60A): T1 sequence (Q16572 1-532 K317A) with Y60A, A317K

[3] = biological target: T3, hVAChT W315A (Homo sapiens, UniProt Q16572, W315A); assay: ACh equilibrium binding by competition against [3H]vesamicol
T3 sequence (Q16572 1-532 W315A): T1 sequence (Q16572 1-532 K317A) with W315A, A317K

[4] = biological target: T4, hVAChT W331L (Homo sapiens, UniProt Q16572, W331L); assay: as above
T4 sequence (Q16572 1-532 W331L): T1 sequence (Q16572 1-532 K317A) with A317K, W331L

[5] = biological target: T5, hVAChT C388A (Homo sapiens, UniProt Q16572, C388A); assay: as above
T5 sequence (Q16572 1-532 C388A): T1 sequence (Q16572 1-532 K317A) with A317K, C388A

| Vmax/Bmax, ACh transport normalized to Bmax ([2]; pH 7.4) [min⁻¹] | Km ([2]; read-out: KM, Michaelis-Menten constant for ACh transport, pH 7.4) [µM] | Kd [3] [mM] | FHA, fraction of the ACh sites that have high affinity ([3]; W315A hVAChT, pH 7.4) | ACh bound more weakly than by wild-type ([4]; W331L hVAChT vs wild-type) [fold] | FHA, fraction of the ACh sites that have high affinity ([4]; W331L hVAChT, pH 7.4, monophasic fit, FHA fixed to 1) | Kd [5] [mM] | FHA, fraction of the ACh sites that have high affinity ([5]; C388A hVAChT, pH 7.4) | SMILES | Bmax, maximal specific [3H]vesamicol binding (VAChT expression level) [1] [pmol/mg] |
| --- | --- | --- | --- | --- | --- | --- | --- | --- | --- |
| – | – | – | – | – | – | – | – | O[C@@H]1CCCC[C@H]1N1CCC(c2ccccc2)CC1 (racemic) [vesamicol, ( )-trans-2-(4-phenylpiperidino)cyclohexanol] | 21 ± 1 |
| 4.7 ± 0.8 | 480 ± 320 | 11 ± 4 | 0.84 ± 0.16 | 10 | 1.0 | 17 ± 4 | 0.88 ± 0.08 | CC(=O)OCC[N+](C)(C)C [ACh, acetylcholine] | – |
